Measurements as given in patent US20140106387A1, “METHOD FOR CONTROLLING NAD(P)/NAD(P)H RATIO BY OXIDOREDUCTASE” (MD BIOALPHA CO., LTD., priority 2006, published 2014).

What was measured:
HEK293 cells = experiment: mitochondrial oxygen consumption in HEK293 cells; format: cell-based, human
From the text: FIG. 22 is a graph showing monitoring results of mitochondrial oxygen consumption using a Clark-type oxygen electrode;

AMPK [1] = experiment: AMPK kinase assay in mouse tissues; format: in vivo
[2] = swimming test of physical endurance; format: in vivo, mouse; settings: C57BL/6 DIO mice, single administration, 3 hours later
Method: This Example was intended to measure a difference in physical endurance of mice through a swimming test. For this purpose, water was placed in a cylindrical trough having a diameter of 9.5 cm and a height of 25 cm, and pyrano-1,2-naphthoquinone was administered to C57BL/6 DIO mice. 3 hours later, a sample-administered group and a control group were placed simultaneously into each cylindrical trough for measurement, and physical endurance of each group was measured and compared.

AMPK [3] = experiment: AMPK phosphorylation in HEK293 cells (Western blot); format: cell-based, human; settings: 10 μM, 30 min
Method: Cells were lysed in SDS sample buffer (62.5 mM Tris HCl (pH 6.8), 6% (w/v) SDS, 30% glycerol, 125 mM DTT, and 0.03% (w/v) bromophenol blue). The total cell lysates were boiled at a temperature of 100° C. for 5 min and electrophoresed on a sodium dodecyl sulfate-polyacrylamide gel, and proteins were transferred on a nitrocellulose membrane. The membrane was reacted in TBS (5% (w/v) milk and 0.1% Tween 20) for 1 hour, and then reacted with primary antibodies for 2 hours. Next, the membrane was developed using HRP-conjugated secondary antibodies (Phototope-HRP Western Blot Detection Kit, New England Biolabs, Beverly, Mass.).
In order to investigate the importance of an NQO1 protein in phosphorylation of AMP kinase, HepG2, MCF-7 and HEK293 cells were seeded onto 60 mm plates at a density of 1×10^6 cells/plate. After growing the cells for 24 hours, the culture medium was replaced with a serum-free medium, and cells were treated with pyrano-1,2-naphthoquinone (10 μM) for 30 min, respectively, in combination with a control group (DMSO). Cells were lysed in RIPA buffer and amounts of all proteins were quantified using a spectrophotometer, and 50 μg of the protein was subjected to electrophoresis. AMP kinase phosphorylation was examined using Anti-AMPK and Anti-pT172-AMPK, whereas the NQO1 protein was assayed using Anti-NQO1. From the fact that AMP kinase phosphorylation by pyran-1,2-naphthoquinone (10 μM) was not observed in HEK293 cells, it can be seen that the NQO1 protein is crucial for phosphorylation of AMP kinase.
In order to examine that an activity of NQO1 is important for the phosphorylation of AMP kinase, HEK293 cells were seeded onto a 6-well plate at a density of 1×10^5 cells/well, cultured for 24 hours, and transfected with pSG5-HA-NQO1 (500 ng) and pSG5-HA-NOQ1-C609T (500 ng) plasmids. After 24 hours, the culture medium was replaced with a serum-free medium, and the cells were treated with pyrano-1,2-naphthoquinone (10 μM) and AICAR (2 mM) for 30 min, in combination with a control (DMSO). AMP kinase phosphorylation were assayed using Anti-AMPK and Anti-pT172-AMPK, whereas transfected NQO1 was assayed using Anti-HA.
In addition, AMPK phosphorylation/activation was not promoted in HEK293 cells, except for HEK293 cells transfected with wild type NQO1.

[4] = Respiratory Quotient and indirect calorimetry; format: in vivo, mouse
Method: O2 consumption of animals was recorded by a known method. For indirect calorimetry, mice were individually housed in calorimetry chambers (Oxymax OPTO-M3 system; Columbus Instruments, Columbus, Ohio). Animals were allowed to acclimate to a new environment for 48 hours prior to the experiment, and amounts of O2 consumption and CO2 production were measured for […] every 30 minutes. Mice were given free access to food and drinking water during the first 24 h period, and animals were given access to drinking water only during the second 24 h period. Blood samples were taken from a heparinized tube, immediately placed on ice, centrifuged and stored at −20[…] for future use. Enzymatic colorimetry was employed for quantification of triglyceride (TG), total cholesterol, free fatty acids, and glucose (Beckman Instruments, CA). Plasma insulin (Linco Research, MO), TNFα (R&D System), adiponectin (Linco Research, MO), resistin (KOMED) and leptin (Linco Research, MO) were quantified by ELISA.
This Example was intended to examine effects of pyran-1,2-naphthoquinone on fat metabolism via measurement of Respiratory Quotient (RQ). Oxygen consumption and carbon dioxide production were measured using an Oxyscan open-circuit indirect calorimeter (AccuScan Instruments, Columbus, Ohio). This apparatus consisted of enclosed acrylic chambers (21×21×21 cm). Fresh air was drawn into each chamber at a rate of 1500 mL/min and then O2 and CO2 were allowed to pass through detectors. The concentrations of the gases were recorded in mL/kg body weight/min. RQ was calculated as the volume of CO2 produced (VCO2) divided by the volume of O2 consumed (VO2). A pyrano-1,2-naphthoquinone-administered group, a vehicle-administered group and a control group were placed in each apparatus, and RQ was measured for 7 hours. For acclimation of the animals to the new environment, mice were placed in the apparatus 2 hours prior to measurement.

[5] = AMP/ATP, NAD+/NADH and NADP+/NADPH ratios in liver after intravenous administration; format: in vivo, mouse; settings: Lean mice
[6] = DIO mice, oral 50 mg/kg, data not shown

## CC1(C)CCC2=C(O1)c1ccccc1C(=O)C2=O [βL, 2,2-Dimethyl-3,4-dihydro-2H-benzo[h]chromene-5,6-dione]
HEK293 cells
  increased oxygen consumption: not observed
AMPK [1]; C57BL/6 mice, 5 mg/kg tail vein, 2 hours and 4 hours
  AMPK activity in the liver and gonadal adipose tissues: increased AMPK activity
AMPK [1]; DIO mice, oral 50 mg/kg
  AMPK activity in liver, EDL and soleus muscle vs vehicle-treated control: higher
AMPK [1]; [6]
  duration of oral administration effect on AMPK activity: about 6 hours
  time of maximum oral administration effect on AMPK activity: 2 h
[2]
  increase of swimming duration compared to control: two-fold
AMPK [3]; HEK293 cells (no NQO1)
  AMP kinase phosphorylation: not promoted
AMPK [3]; HEK293 cells (no NQO1), listed as pyran-1,2-naphthoquinone
  AMP kinase phosphorylation: not observed
AMPK [3]; HEK293 transfected with NQO1-C609T having no NQO1 activity
  AMP kinase phosphorylation: no phosphorylation of AMP kinase
[4]; measured for 7 hours, vs vehicle-administered and control group
  Respiratory Quotient (RQ): significant difference in a RQ value
[4]; βL-treated mice
  oxygen consumption (indirect calorimetry): increases in night-time and day-time oxygen consumption
[4]; βL-treated mice vs control group
  energy consumption: higher energy consumption
[5]
  changes in the AMP/ATP ratio and NAD+/NADP ratio compared with control: less changes
